# Measured values: ChEMBL document CHEMBL5550142, “From lab to nature: Recent advancements in the journey of gastroprotective agents from medicinal chemistry to phytotherapy” (Eur J Med Chem, 2024)
# pIC50: −log10 of the molar value.
# Tests used:
# Helicobacter pylori [1] = test: Antibacterial activity against Helicobacter pylori ATCC 43504 assessed as minimum bactericidal concentration incubated for 24 hrs by broth micro-dilution method; type: functional
# Rattus norvegicus [2] = test: Protection against aspirin-induced Sprague-Dawley rat model assessed as reduction in gastric glandular lesion at 20 mg/kg, po administered for 30 mins once a day relative to control; type: functional; parameters: scale not given: the % may be the effect or the level left; details: 0.5 h
# Rattus norvegicus [3] = test: Gastric ulcerogenic activity in Albino wistar rat assessed as reduction in pyloric lesion at 250 mg/kg, po relative to control; type: functional; parameters: scale not given: the % may be the effect or the level left
# Rattus norvegicus [4] = organism: Rattus norvegicus; test: Anti-ulcer activity in stress-induced Sprague-Dawley rat […] model assessed as reduction in ulcer fomation; type: functional; parameters: Activity: concentration or dose not given beside the values; details: for ED50: Rattus norvegicus, Sprague-Dawley
# [5] = Cmax in C57BL/6 mouse administered via oral gavage by LC-MS/MS analysis; type: ADME; details: in vivo
# Helicobacter pylori [6] = test: Antibacterial activity against Helicobacter pylori assessed as inhibition of bacterial growth by broth micro-dilution assay; type: functional
# [7] = molecular target: T1, Gastrin/cholecystokinin type B receptor (Homo sapiens, UniProt P32239); test: Antagonist activity at human CCKBR; type: functional
# T1 sequence (P32239 whole entry): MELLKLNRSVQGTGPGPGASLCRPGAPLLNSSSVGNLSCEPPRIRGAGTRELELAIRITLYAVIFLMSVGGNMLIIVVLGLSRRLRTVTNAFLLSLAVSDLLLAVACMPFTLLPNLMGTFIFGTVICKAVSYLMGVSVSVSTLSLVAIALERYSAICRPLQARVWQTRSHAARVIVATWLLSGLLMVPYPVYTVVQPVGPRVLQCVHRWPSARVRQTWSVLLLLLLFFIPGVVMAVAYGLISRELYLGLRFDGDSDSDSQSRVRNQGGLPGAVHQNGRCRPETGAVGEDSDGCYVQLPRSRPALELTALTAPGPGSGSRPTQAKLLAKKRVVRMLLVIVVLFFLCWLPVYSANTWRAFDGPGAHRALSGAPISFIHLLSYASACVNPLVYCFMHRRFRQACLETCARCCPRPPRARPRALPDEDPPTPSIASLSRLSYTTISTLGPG
# Helicobacter pylori [8] = test: Antibacterial activity against Helicobacter pylori assessed as reduction in bacterial growth incubated for 24 hrs by broth micro-dilution method; type: functional
# Rattus norvegicus [9] = test: Gastric ulcerogenic activity in Wistar rat assessed as reduction in gastric inflammation at 0.02 mg/kg, po relative to control; type: functional; parameters: scale not given: the % may be the effect or the level left
# [10] = Inhibition of urease (unknown origin); parameters: species or system Homo sapiens
# Mus musculus [11] = test: Anti-inflammatory activity against carrageenan-induced hind paw edema Swiss albino mouse model assessed as reduction in paw thickness at 10 mg/kg, po relative to control; type: functional; parameters: scale not given: the % may be the effect or the level left
# Mus musculus [12] = test: Gastric ulcerogenic activity in Swiss albino mouse model assessed as inhibition of gastric inflammation at 250 mg/kg, po relative to control; type: functional; parameters: scale not given: the % may be the effect or the level left
# [13] = molecular target: Urease subunit alpha/Urease subunit beta (Helicobacter pylori (strain ATCC 700392 / 26695) (Campylobacterpylori), UniProt P69996); test: Inhibition of Helicobacter pylori urease; type: protein-complex assay
# [14] = Inhibition of Hydrogen potassium ATPase (unknown origin); parameters: species or system Homo sapiens; details: for pIC50: read-out: IC50
# Mus musculus [15] = test: Anti-ulcerogenic activity in ethanol-induced gastric ulcer mouse model assessed as reduction in ulcer formation at 250 mg/kg; type: functional
# Helicobacter pylori [16] = test: Antibacterial activity against Helicobacter pylori ATCC 43504 assessed as reduction in bacterial growth incubated for 24 hrs by broth micro-dilution method; type: functional
# Sequence of Urease subunit alpha/Urease subunit beta (P69996 whole entry): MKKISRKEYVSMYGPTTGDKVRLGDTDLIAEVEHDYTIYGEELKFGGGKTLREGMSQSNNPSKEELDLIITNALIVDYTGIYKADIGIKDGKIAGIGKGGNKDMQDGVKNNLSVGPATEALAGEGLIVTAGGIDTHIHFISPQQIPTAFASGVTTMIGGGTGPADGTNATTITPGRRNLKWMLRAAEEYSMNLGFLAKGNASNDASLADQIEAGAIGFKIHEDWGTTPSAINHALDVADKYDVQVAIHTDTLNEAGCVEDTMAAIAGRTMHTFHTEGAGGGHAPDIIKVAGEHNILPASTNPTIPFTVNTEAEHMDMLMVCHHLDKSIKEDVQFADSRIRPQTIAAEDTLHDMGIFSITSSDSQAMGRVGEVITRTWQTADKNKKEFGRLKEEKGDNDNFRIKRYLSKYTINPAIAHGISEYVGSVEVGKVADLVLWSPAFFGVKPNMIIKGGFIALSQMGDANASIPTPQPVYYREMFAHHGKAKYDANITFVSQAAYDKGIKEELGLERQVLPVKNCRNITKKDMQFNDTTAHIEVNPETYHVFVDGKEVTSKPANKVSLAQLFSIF
# Sequence of Urease subunit alpha/Urease subunit beta (P14916 whole entry, further chain): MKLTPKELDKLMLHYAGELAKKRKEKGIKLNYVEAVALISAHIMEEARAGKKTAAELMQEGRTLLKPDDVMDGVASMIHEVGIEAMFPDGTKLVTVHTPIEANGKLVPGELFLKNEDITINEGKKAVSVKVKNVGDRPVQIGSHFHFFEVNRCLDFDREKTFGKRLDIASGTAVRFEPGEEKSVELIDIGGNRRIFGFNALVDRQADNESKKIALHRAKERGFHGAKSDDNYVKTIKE
smiles,measurement,setting,value
COCCOCCOCCOCCOCCSc1cccc(CSc2nc3ccccc3[nH]2)c1C,MBC,Helicobacter pylori [1],0.5 µg/mL
CC(C)NC(C)CC1OCCc2ccccc21 (stereo unspecified),Activity,Rattus norvegicus [2],61%
N#Cc1c(O)nc2sc3sc(-c4cc5ccccc5oc4=O)nc3c2c1O,Activity,Rattus norvegicus [3],70%
CCCc1cc([S+]([O-])c2nc3cc(C)ccc3[nH]2)nc(C)n1 (stereo unspecified),Activity,Rattus norvegicus [4],72.87%
CCCc1cc([S+]([O-])c2nc3cc([N+](=O)[O-])ccc3[nH]2)nc(C)n1 (stereo unspecified),Activity,Rattus norvegicus [4],75.15%
[O-][S+](Cc1cc(OCC(F)(F)F)ccn1)c1nc2ccccc2[nH]1 (stereo unspecified),ED50,Rattus norvegicus [4],2 mg/kg
Cc1c(CSc2nc3ccccc3[nH]2)cccc1SCCOC(=O)Nc1ccccc1,Cmax,[5],900 ng/mL
same,MIC90,Helicobacter pylori [6],> 64 µg/mL
CCCc1ccc([C@@H]2N[C@H](C(=O)OC)CC3c4ccccc4NC32)cc1 (stereo partly specified),pIC50,[7],3.85
O=c1oc2ccccc2cc1-c1nc2c(s1)sc1nc(=S)n(-c3ccccc3)c(O)c12,Activity,Rattus norvegicus [3],78%
COc1cc2ccc(=O)oc2cc1O[C@@H]1O[C@H](CO)[C@@H](O)[C@H](O)[C@H]1O [SCOPOLIN],MIC,Helicobacter pylori [8],50 µg/mL
COc1ccc2[nH]c([S+]([O-])Cc3nc(Cl)c4c(-c5ccccc5)csc4n3)nc2c1 (stereo unspecified),Activity,Rattus norvegicus [9],70.2%
COc1ccc(C(=O)N/N=C/c2cc(O)cc(O)c2)cc1OC,pIC50,[10],5.08
CCOC1=C(Sc2nnc(-c3c([C@H]4CC[C@H]5[C@@H]6CC=C7C[C@H](O)CC[C@]7(C)[C@H]6CC[C@]45C)csc3N)n2-c2ccccc2)C(c2ccccc2)C(C#N)=C(N)N1 (stereo partly specified),Activity,Mus musculus [11],0.18%
same,Activity,Mus musculus [12],5.9%
O=C(Cc1c[nH]c2ccccc12)N/N=C/c1cccc(O)c1O,pIC50,[13],6.05
Cc1c(OCC(F)(F)C(F)(F)F)ccnc1C[S+]([O-])c1nc2ccccc2[nH]1 (stereo unspecified),ED50,Rattus norvegicus [4],5.1 mg/kg
CC(C)Cc1ccc(C(C)C(=O)O)cc1 (stereo unspecified) [IBUPROFEN],Activity,Rattus norvegicus [4],35%
COc1ccc2[nH]c([S+]([O-])Cc3ncc(C)c(OC)c3C)nc2c1 (stereo unspecified) [OMEPRAZOLE],IC50,[14],37.91 µg/mL
Cc1cc(S(=O)(=O)N2CCN(S(=O)(=O)c3ccccc3)CC2)c2c(C)ccc(C(C)C)cc1-2,Activity_index,Mus musculus [15],1.12
N#Cc1c(NC(=O)c2c(-c3ccccc3)cnn(-c3ccc(Cl)cc3)c2=N)sc2sc(-c3cc4ccccc4oc3=O)nc12,Activity,Rattus norvegicus [3],94%
Cc1c(OCC(F)(F)F)ccnc1C[S+]([O-])c1nc2ccccc2[nH]1 (stereo unspecified) [LANSOPRAZOLE],ED50,Rattus norvegicus [4],2.4 mg/kg
COc1ccc(C2CC(c3ccco3)=Nc3ccccc3S2)cc1 (stereo unspecified),pIC50,[14],5.70
CN(C)c1ccc(/C=C/C(=C2C(=O)NC(=O)NC2=O)c2nc3ccccc3[nH]2)cc1,Activity,Rattus norvegicus [9],69.56%
CC(CC1OCCc2ccccc21)NCCc1ccccc1 (stereo unspecified),Activity,Rattus norvegicus [2],71.3%
COc1nc(C[S+]([O-])c2nc3ccccc3[nH]2)nc2scc(-c3ccccc3)c12 (stereo unspecified),Activity,Rattus norvegicus [9],64.6%
COC(=O)c1ccc(/C=N/NC(=O)Cc2c[nH]c3ccccc23)cc1,pIC50,[10],5.41
CC(C)Cc1ccc(C(C)C(=O)NS(=O)(=O)c2ccc(N)cc2)cc1 (stereo unspecified),Activity,Rattus norvegicus [4],8%
CCOC(=O)/C(=N/Nc1ccccc1)Sc1nnc(-c2c([C@H]3CC[C@H]4[C@@H]5CC=C6C[C@H](O)CC[C@]6(C)[C@H]5CC[C@]34C)csc2N)n1-c1ccccc1,Activity,Mus musculus [11],0.96%
same,Activity,Mus musculus [12],6.7%
C=CCSCC=C [DIALLYL SULFIDE],MIC,Helicobacter pylori [16],100 µg/mL
C[C@]12CCC(=O)C=C1CC[C@@H]1[C@@H]2CC[C@]2(C)c3nc(NC4=C(C#N)C(c5ccc(Cl)cc5)C(C#N)=C(N)O4)sc3C[C@@H]12 (stereo partly specified),Activity_index,Mus musculus [15],2.48
COc1ccc(-n2ncc(-c3ccccc3)c(C(=O)Nc3sc4sc(-c5cc6ccccc6oc5=O)nc4c3C#N)c2=N)cc1,Activity,Rattus norvegicus [3],93%
CC(CC1OCCc2ccccc21)NCC(C)c1ccccc1 (stereo unspecified),Activity,Rattus norvegicus [2],71.3%
COc1ccc2cc3[n+](cc2c1OC)CCc1cc2c(cc1-3)OCO2 [BERBERINE],MIC,Helicobacter pylori [8],0.78 µg/mL
COCCOCCOCCSc1cccc(CSc2nc3ccccc3[nH]2)c1C,MBC,Helicobacter pylori [1],0.5 µg/mL
N#Cc1c(N)sc2sc(-c3cc4ccccc4oc3=O)nc12,Activity,Rattus norvegicus [3],64%
O=C1NC(=O)C(=C(/C=C/c2ccc(Cl)cc2)c2nc3ccccc3[nH]2)C(=O)N1,Activity,Rattus norvegicus [9],69.56%
COc1ccc(C(=O)N/N=C/c2cc(O)c(O)c(O)c2)cc1OC,pIC50,[10],4.90
COc1ccc(C(=O)N/N=C/c2cc(O)ccc2O)cc1OC,pIC50,[10],4.72
COc1ccc(C(=O)N/N=C/c2ccc(O)c(O)c2)cc1OC,pIC50,[10],4.74
O=C1NC(=O)C(=C(/C=C/c2ccccc2)c2nc3ccccc3[nH]2)C(=O)N1,Activity,Rattus norvegicus [9],63.04%
CN/C(=N\CCSCc1nc[nH]c1C)NC#N [CIMETIDINE],Activity,Rattus norvegicus [2],51.6%
CC(CC1CCCc2ccccc21)NCC(C)c1ccccc1 (stereo unspecified),Activity,Rattus norvegicus [2],71.3%
CC(C)=CCOc1c2ccoc2cc2oc(=O)ccc12 [ISOIMPERATORIN],pIC50,[10],4.44
Brc1ccc(C2CC(c3ccco3)=Nc3ccccc3S2)cc1 (stereo unspecified),pIC50,[14],5.68
CCCc1cc([S+]([O-])c2nc3ccccc3[nH]2)nc(C)n1 (stereo unspecified),Activity,Rattus norvegicus [4],74.03%
Cc1c(CSc2nc3ccccc3[nH]2)cccc1SCCn1cncn1,MBC,Helicobacter pylori [1],4 µg/mL
N#C/C(C(=O)Nc1sc2sc(-c3cc4ccccc4oc3=O)nc2c1C#N)=C(\C=N\Nc1ccccc1)c1ccccc1,Activity,Rattus norvegicus [3],66%
O=C(Cc1c[nH]c2ccccc12)N/N=C/c1ccc(O)c(O)c1,pIC50,[13],6.22
N#CC1=C(N)Nc2nc(-c3cc4ccccc4oc3=O)sc2C1c1ccccc1 (stereo unspecified),Activity,Rattus norvegicus [3],82%
Cc1ccccc1-c1nc2c(C(=O)NCc3cccc(CN)c3)cccn2c1NCc1ccccc1,pIC50,[14],5.21
COC1Oc2ccccc2-c2sc(C=O)cc21 (stereo unspecified),Activity,Rattus norvegicus [4],7.3%
Cc1c(OCC(F)(F)C(F)F)ccnc1C[S+]([O-])c1nc2ccccc2[nH]1 (stereo unspecified),ED50,Rattus norvegicus [4],1.2 mg/kg
Cc1cc(S(=O)(=O)N2CCN(S(C)(=O)=O)CC2)c2c(C)ccc(C(C)C)cc1-2,Activity_index,Mus musculus [15],1.714
CCOC(=O)CN1CCN(S(=O)(=O)c2cc(C)c3cc(C(C)C)ccc(C)c2-3)CC1,Activity_index,Mus musculus [15],1.875
CCOC(=O)/C(C(=O)Nc1sc2sc(-c3cc4ccccc4oc3=O)nc2c1C#N)=C(/C)c1ccccc1,Activity,Rattus norvegicus [3],48%
COc1ccc2c(c1OC)C(=O)O[C@@H]2[C@H]1c2cc3c(cc2CCN1C)OCO3 [HYDRASTINE],MIC,Helicobacter pylori [8],25 µg/mL
Cc1c(CSc2nc3ccccc3[nH]2)cccc1SCCn1c([N+](=O)[O-])cnc1C,MBC,Helicobacter pylori [1],2 µg/mL
O=C(Cc1c[nH]c2ccccc12)N/N=C/c1ccc(O)cc1O,pIC50,[13],5.92
COC(=O)[C@H]1Cc2c([nH]c3ccccc23)[C@H](c2ccc(C)cc2)N1,pIC50,[7],4.19
Cc1ccc(-c2csc(NC(=O)/C=C/c3ccc(O)c(O)c3)n2)cc1,IC50,[14],35.35 µg/mL
CC(=O)/C(=N/Nc1ccccc1)Sc1nnc(-c2c([C@H]3CC[C@H]4[C@@H]5CC=C6C[C@H](O)CC[C@]6(C)[C@H]5CC[C@]34C)csc2N)n1-c1ccccc1,Activity,Mus musculus [11],1.77%
same,Activity,Mus musculus [12],6.2%
C=CCSSSSCC=C [DIALLYL TETRASULFIDE],MIC,Helicobacter pylori [8],3 µg/mL
Cc1c(CSc2nc3ccccc3[nH]2)cccc1SCCN1CCOCC1,MBC,Helicobacter pylori [1],1 µg/mL
COc1ccc(C2C(C#N)=C(O)OC(Nc3nc4c(s3)C[C@H]3[C@@H]5CCC6=CC(=O)CC[C@]6(C)[C@H]5CC[C@]43C)=C2C#N)cc1 (stereo partly specified),Activity_index,Mus musculus [15],2.48
COc1ccc2[nH]c([S+]([O-])Cc3nc(Cl)c4c(-c5ccc(Cl)cc5)csc4n3)nc2c1 (stereo unspecified),Activity,Rattus norvegicus [9],72.6%
COc1ccc(/C=C/C(=C2C(=O)NC(=O)NC2=O)c2nc3ccccc3[nH]2)cc1,Activity,Rattus norvegicus [9],67.17%
COc1cc2ccc(=O)oc2cc1O [SCOPOLETIN],MIC,Helicobacter pylori [8],50 µg/mL
CCc1ccc(-c2nc3c(C(=O)NCc4cccc(CN)c4)cccn3c2NCc2ccccc2)cc1,pIC50,[14],5.22
